Laboratory results: PubChem BioAssay AID624167 (Sanford-Burnham Center for Chemical Genomics, 2012)
Active and inactive are the calls of the source.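 How the source made its calls: active means mean IC50 for reducing PEG3 promoter reporter signal at or below a set limit, with IC50 above the limit in both counter screens; inactive means the rest, including counter screen hits.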

Assays:
GAPDH = assay: inhibition of PEG-3 promoter-driven reporter – cell-based, HeLa, luciferase, CREF/GAPDH counter-screen panel, dose response (AID 624167); conditions: CREF/GAPDH counter-screens
PEG-3 [1] = assay: as above; conditions: HeLa PEG-Prom luciferase reporter, overnight, CREF/GAPDH counter-screens
Rat fibroblasts (CREF) = assay: as above; conditions: CREF/GAPDH counter-screens
PEG-3 [2] = target: PEG-3 (UniProt Q6IN02); assay: as above; conditions: HeLa PEG-Prom luciferase reporter, overnight, CREF/GAPDH counter-screens, mean of runs
Chain of PEG-3 (UniProt Q6IN02) (Q6IN02 whole entry, looked up): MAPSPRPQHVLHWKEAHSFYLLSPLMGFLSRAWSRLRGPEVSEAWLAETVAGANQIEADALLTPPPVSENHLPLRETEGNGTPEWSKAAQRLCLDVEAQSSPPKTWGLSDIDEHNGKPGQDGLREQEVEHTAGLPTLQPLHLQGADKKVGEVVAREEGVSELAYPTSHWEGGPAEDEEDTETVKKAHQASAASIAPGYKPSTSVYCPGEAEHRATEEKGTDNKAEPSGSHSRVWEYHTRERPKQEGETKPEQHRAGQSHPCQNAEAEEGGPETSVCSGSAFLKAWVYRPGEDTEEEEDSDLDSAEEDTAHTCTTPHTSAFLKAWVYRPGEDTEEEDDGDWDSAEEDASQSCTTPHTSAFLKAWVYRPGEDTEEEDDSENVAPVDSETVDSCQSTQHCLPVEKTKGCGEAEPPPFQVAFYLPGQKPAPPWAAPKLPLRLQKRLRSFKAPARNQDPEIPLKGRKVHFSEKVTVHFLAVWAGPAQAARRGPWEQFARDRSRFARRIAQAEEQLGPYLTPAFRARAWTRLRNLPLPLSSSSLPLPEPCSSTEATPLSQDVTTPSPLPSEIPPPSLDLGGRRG

[3] = as above; conditions: CREF/GAPDH counter-screens; GAPDH; mean of runs
[4] = run 1, dose range 1, individual replicate IC50 per panel
[5] = run 2, dose range 1, individual replicate IC50 per panel

IC50 (PEG-3 [2])	IC50 [3]	Compound	IC50 (GAPDH; [4]) [µM]	IC50 (GAPDH; [5]) [µM]	IC50 (PEG-3 [1]; [4]) [µM]	IC50 (PEG-3 [1]; [5]) [µM]	IC50 (Rat fibroblasts (CREF); mean of runs)	IC50 (Rat fibroblasts (CREF); [4]) [µM]	IC50 (Rat fibroblasts (CREF); [5]) [µM]
1.77 µM	inactive	CC(=O)NC(c1ccc(Cl)cc1Cl)c1ccc2cccnc2c1O (stereo not drawn)	31.5	61.9	0.852	2.68	> 100 µM (inactive)	> 100	> 100
6.59 µM	10.9 µM	Cc1cc(Br)ccc1NC(=O)CNC(=O)Cn1ncc(Cl)c(Cl)c1=O	10.1	11.8	8.31	4.87	54.2 µM (inactive)	8.5	> 100
3.9 µM		COc1cc(SC)ccc1C(=O)Nc1ncc(C)s1			3.02	4.77	1.94 µM	1.58	2.3
1.97 µM		O=C(Nc1nc2cc3c(cc2s1)OCO3)C1=COCCO1			1.68	2.25	2.29 µM	1.92	2.66
0.568 µM		Cc1cc(C(=O)CN2C(=O)c3ccccc3S2(=O)=O)c(C)n1CC1CCCO1 (stereo not drawn)			0.76	0.375	3.91 µM	1.95	5.86
inactive		Cc1cc(C(=O)COC(=O)c2ccccc2O)c(C)n1CC1CCCO1 (stereo not drawn)			1.24	> 100	3.39 µM	3.34	3.44
8.69 µM		COc1ccc(CCN2C(=O)C=CC2=O)cc1OC			10	7.39	7.92 µM	6.39	9.45
3 µM		Cc1ccc(-n2[nH]c(=O)c(-c3ccccn3)c2C)cc1			2.62	3.38	11.2 µM	7.32	15
6.37 µM		CCn1nc(C)cc1-c1nnc(Sc2ncc([N+](=O)[O-])s2)n1C			8.65	4.09	4.87 µM	5.31	4.43
6.1 µM		Cc1ccc2nc(-c3ccc(Br)cc3)cn2c1			3.13	9.07	7.81 µM	2.93	12.7
8.46 µM		O=C(Nc1cc(S(=O)(=O)N2CCOCC2)ccc1Cl)c1cc([N+](=O)[O-])ccc1Cl			14.8	2.16	19 µM	31.8	6.14
1.76 µM		COc1ccc(C(=O)NNC(=O)c2ccccn2)cc1			2.68	0.849	1.65 µM	1.21	2.09
10 µM		CN(C)c1ccc(/C=C/c2ccc3c4ccccc4ccc3[n+]2-c2ccccc2)cc1			10.5	9.52	17.8 µM	16.9	18.7
8.11 µM		CCCSc1ccc2nc(-c3ccccc3)cn2c1			7.01	9.2	1.53 µM	1.03	2.03
0.535 µM		COc1ccccc1C(=O)Nc1nc2ccccc2[nH]1			0.707	0.362	0.28 µM	0.226	0.335
0.359 µM		CCOc1ccc(OCc2cccc(C(=O)O)c2)cc1			0.232	0.487	3.74 µM	3.88	3.6
2.76 µM		Cc1ccc(-c2cc3c(nn2)-c2ccccc2C3=O)cc1			2.56	2.95	0.337 µM	0.27	0.403
